Measured values taken from patent US9796733B2, “Imidazo-pyrazine derivatives useful as soluble guanylate cyclase activators” (Merck Sharp & Dohme Corp., priority 2014, dated 2017).

What was measured:
[1] = test system: Spontaneously hypertensive rats (SHR); experiment: Acute efficacy in spontaneously hypertensive rats (SHR): telemetry blood pressure lowering after a single oral dose; type: in vivo, rat
Excerpt: Acute Efficacy in Spontaneously Hypertensive Rats (SHR)
Spontaneously hypertensive rats (SHR, male, Charles River) were implanted with DSI TA11PA-C40 telemetry device (Data Sciences, Inc., St. Paul, Minn.) under isoflurane or ketamine/metomidine anesthesia. The telemetry unit catheter was inserted into the descending aorta via the femoral artery and the telemetry device was implanted subcutaneously in the left flank area. Animals were allowed to recover from surgery for 14 days before the start of any studies. Blood pressure, heart rate, and activity signals from conscious, freely moving rats were recorded continuously for 30 seconds every 10 minutes. On the day prior to administration of compound, a single oral dose of vehicle (10% transcutol/20% Cremophor/70% water) was administered to all animals to establish baseline control data. The blood pressure lowering efficacy of compound (PO) or vehicle was evaluated following a single oral gavage. Data were collected as hourly averages, and changes in blood pressure were calculated by subtracting control baseline data on an hourly basis. Animals were maintained on normal diet with a 12 hour light-dark cycle.
Maximum peak decreases of systolic blood pressure (SBP) in SHR at a particular P.O. dose (mpk milligrams per kilogram) for the following representative compounds are provided. Category A=SBP in SHRs<20 mmHg; Category B=SBP in SHRs 20-40 mmHg; Category C=SBP in SHRs>40 mmHg

sGC α1/β1 heterodimer = molecular target: T1, sGC α1/β1 heterodimer (Homo sapiens, UniProt Q02108+Q02153); experiment: Cell-based sGC functional assay (CASA assay): cGMP generation in CHO-K1/sGC cells, HTRF detection; details: for Emax: CHO-K1, percent activation relative to standard Compound A in CHO-K1/sGC cells, read-out: % Act.; for EC50: inflection point (IP) of cGMP generation in CHO-K1/sGC cells, 4P fit, activity expressed as percentage of Compound A
T1 construct: expressed in transfected cells; host or cells: CHO-K1 (clone #7, CHO-K1/sGC)
T1 sequence (Q02108 1-690): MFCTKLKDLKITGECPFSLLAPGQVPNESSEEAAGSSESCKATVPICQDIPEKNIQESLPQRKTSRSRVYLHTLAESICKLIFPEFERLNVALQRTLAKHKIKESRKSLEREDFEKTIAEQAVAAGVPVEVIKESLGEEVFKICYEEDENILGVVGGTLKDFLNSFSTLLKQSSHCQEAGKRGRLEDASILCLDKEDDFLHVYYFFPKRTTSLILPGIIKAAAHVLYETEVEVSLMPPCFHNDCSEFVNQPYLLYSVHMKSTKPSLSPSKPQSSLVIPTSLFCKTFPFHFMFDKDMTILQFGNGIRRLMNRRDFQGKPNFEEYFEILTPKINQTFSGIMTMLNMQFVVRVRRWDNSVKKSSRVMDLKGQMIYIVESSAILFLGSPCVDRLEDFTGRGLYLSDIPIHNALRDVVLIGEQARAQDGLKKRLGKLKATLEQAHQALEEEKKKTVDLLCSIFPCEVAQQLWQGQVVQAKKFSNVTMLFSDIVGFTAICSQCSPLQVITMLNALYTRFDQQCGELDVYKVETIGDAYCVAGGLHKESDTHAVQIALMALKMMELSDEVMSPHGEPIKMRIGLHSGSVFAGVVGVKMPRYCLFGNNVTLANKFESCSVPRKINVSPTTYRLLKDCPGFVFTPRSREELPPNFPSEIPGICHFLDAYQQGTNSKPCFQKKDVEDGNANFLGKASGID
T1 sequence (Q02153 1-619): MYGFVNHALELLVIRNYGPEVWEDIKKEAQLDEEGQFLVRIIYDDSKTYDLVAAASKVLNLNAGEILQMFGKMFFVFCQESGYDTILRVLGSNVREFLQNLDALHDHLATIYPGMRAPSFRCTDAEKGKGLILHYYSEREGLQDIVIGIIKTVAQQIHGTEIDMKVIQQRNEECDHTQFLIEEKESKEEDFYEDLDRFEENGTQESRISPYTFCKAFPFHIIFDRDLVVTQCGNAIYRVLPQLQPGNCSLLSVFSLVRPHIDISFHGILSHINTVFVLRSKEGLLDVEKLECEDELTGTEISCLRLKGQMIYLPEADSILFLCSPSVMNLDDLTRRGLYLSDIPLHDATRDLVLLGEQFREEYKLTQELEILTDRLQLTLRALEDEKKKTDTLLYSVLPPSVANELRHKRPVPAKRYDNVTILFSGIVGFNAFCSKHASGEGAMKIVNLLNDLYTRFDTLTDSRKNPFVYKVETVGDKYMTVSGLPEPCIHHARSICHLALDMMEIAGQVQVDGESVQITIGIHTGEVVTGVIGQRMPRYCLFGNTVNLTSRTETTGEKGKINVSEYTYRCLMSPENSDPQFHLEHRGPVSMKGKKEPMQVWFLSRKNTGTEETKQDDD
Outline: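 Stable CHO-K1/sGC cells in EBSS buffer with 5 mM MgCl2, 0.05% BSA and 0.5 mM IBMX were incubated with compound (2.5% DMSO final) ±1 μM DETA-NO for 1 hr at 37° C. cGMP was measured by HTRF. Activation is expressed as % of reference HDA Compound A maximum, with IP and max fold induction from a 4P fit.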

SMILES | Maximum peak decrease of systolic blood pressure (SBP) in SHR, Cat. ([1]; P.O. 0.3 mpk) | Emax (sGC α1/β1 heterodimer) [%] | EC50 (sGC α1/β1 heterodimer) [nM] | Maximum peak decrease of systolic blood pressure (SBP) in SHR, Cat. ([1]; P.O. 3.0 mpk) | Maximum peak decrease of systolic blood pressure (SBP) in SHR, Cat. ([1]; P.O. 0.1 mpk) | Maximum peak decrease of systolic blood pressure (SBP) in SHR, Cat. ([1]; P.O. 1.0 mpk)
CN1CCN(c2nc(-c3cn4ccnc4c(CCC(F)(F)C(F)(F)F)n3)nc3c2C(C)(c2ccc(F)cc2)C(=O)N3)CC1 (stereo not drawn) [Example 311A, 5-(4-fluorophenyl)-5-methyl-4-(4-methylpiperazin-1-yl)-2-(8-(3,3,4,4,4-pentafluorobutyl)imidazo[1,2-a]pyrazin-6-yl)-5H-pyrrolo[2,3-d]pyrimidin-6(7H)-one] | A (Category A=SBP in SHRs<20 mmHg) | 92 | 29 | – | – | –
CCCCc1nc(-c2nc(N)c3c(n2)NC(=O)C3(c2ccc(Cl)cn2)C2CC2)cn2ccnc12 (stereo not drawn) [Example 336B, 4-amino-2-(8-butylimidazo[1,2-a]pyrazin-6-yl)-5-(5-chloropyridin-2-yl)-5-cyclopropyl-5H-pyrrolo[2,3-d]pyrimidin-6(7H)-one] | B (Category B=SBP in SHRs 20-40 mmHg) | 131 | 22 | – | – | –
CCCc1ccc(C2(C)C(=O)Nc3nc(-c4cn5ccnc5c(CCC(F)(F)C(F)(F)F)n4)nc(N)c32)cn1 (stereo not drawn) [Example 250B, 4-amino-5-methyl-2-(8-(3,3,4,4,4-pentafluorobutyl)imidazo [1,2-a]pyrazin-6-yl)-5-(6-propylpyridin-3-yl)-5H-pyrrolo[2,3-d]pyrimidin-6(7H)-one] | – | 87 | 169 | A (Category A=SBP in SHRs<20 mmHg) | – | –
CC1(c2ccc(F)cn2)C(=O)Nc2nc(-c3cn4ccnc4c(Cc4ccc(F)cc4)n3)nc(N)c21 (stereo not drawn) [Example 69B, 4-Amino-2-(8-(4-fluorobenzyl)imidazo[1,2-a]pyrazin-6-yl)-5-(5-fluoropyridin-2-yl)-5-methyl-5H-pyrrolo[2,3-d]pyrimidin-6(7H)-one] | C (Category C=SBP in SHRs>40 mmHg) | 116 | 9 | – | – | –
Nc1nc(-c2cn3ccnc3c(CCC(F)(F)C(F)(F)F)n2)nc2c1C(C(=O)NC1CC1)(C1CC1)C(=O)N2 (single isomer, unassigned) [Example 61A, 4-amino-N,5-dicyclopropyl-6-oxo-2-(8-(3,3,4,4,4-pentafluorobutyl)imidazo[1,2-a]pyrazin-6-yl)-6,7-dihydro-5H-pyrrolo[2,3-d]pyrimidine-5-carboxamide] | – | 95 | 424 | B (Category B=SBP in SHRs 20-40 mmHg) | – | –
Nc1nc(-c2cn3ccnc3c(CCCC(F)(F)F)n2)nc2c1C(c1ccc(F)c(F)c1)(C1CC1)C(=O)N2 (stereo not drawn) [Example 317A, 4-amino-5-cyclopropyl-5-(3,4-difluorophenyl)-2-(8-(4,4,4-trifluorobutyl)imidazo[1,2-a]pyrazin-6-yl)-5H-pyrrolo[2,3-d]pyrimidin-6(7H)-one] | – | 156 | 75 | – | B (Category B=SBP in SHRs 20-40 mmHg) | –
CC1(c2ccc(OC(F)F)cn2)C(=O)Nc2nc(-c3cn4ccnc4c(CCCC(F)(F)F)n3)nc(N)c21 (stereo not drawn) [Example 214A, 4-amino-5-(5-(difluoromethoxy)pyridin-2-yl)-5-methyl-2-(8-(4,4,4-trifluorobutyl)imidazo[1,2-a]pyrazin-6-yl)-5H-pyrrolo[2,3-d]pyrimidin-6(7H)-one] | – | 92 | 247 | – | – | B (Category B=SBP in SHRs 20-40 mmHg)
Nc1nc(-c2cn3ccnc3c(CCC(F)(F)F)n2)nc2c1C(c1ccc(Cl)cc1)(C1CC1)C(=O)N2 (stereo not drawn) [Example 198B, 4-amino-5-(4-chlorophenyl)-5-cyclopropyl-2-(8-(3,3,3-trifluoropropyl)imidazo[1,2-a]pyrazin-6-yl)-5H-pyrrolo[2,3-d]pyrimidin-6(7H)-one] | – | 112 | 492 | – | – | B (Category B=SBP in SHRs 20-40 mmHg)
CC1(c2ccc(Cl)cn2)C(=O)Nc2nc(-c3cn4ccnc4c(CCC(F)(F)C(F)(F)F)n3)nc(N)c21 (stereo not drawn) [Example 228A, 4-amino-5-(5-chloropyridin-2-yl)-5-methyl-2-(8-(3,3,4,4,4-pentafluorobutyl)imidazo [1,2-a]pyrazin-6-yl)-5H-pyrrolo[2,3-d]pyrimidin-6(7H)-one] | B (Category B=SBP in SHRs 20-40 mmHg) | 108 | 20 | – | – | –
CC1(c2ccc(F)cc2)C(=O)Nc2nc(-c3cn4cc(C(F)(F)F)nc4c(Cc4ccccc4)n3)nc(N)c21 (stereo not drawn) [Example 154A, 4-amino-2-(8-benzyl-2-(trifluoromethyl)imidazo[1,2-a]pyrazin-6-yl)-5-(4-fluorophenyl)-5-methyl-5H-pyrrolo[2,3-d]pyrimidin-6(7H)-one] | – | 120 | 85 | – | – | A (Category A=SBP in SHRs<20 mmHg)
CC1(c2ccc(F)c(F)c2)C(=O)Nc2nc(-c3cn4ccnc4cn3)nc(N)c21 (stereo not drawn) [Example 141B, 4-amino-5-(3,4-difluorophenyl)-2-(imidazo[1,2-a]pyrazin-6-yl)-5-methyl-5H-pyrrolo[2,3-d]pyrimidin-6(7H)-one] | – | 112 | 236 | B (Category B=SBP in SHRs 20-40 mmHg) | – | –
CCCCc1nc(-c2nc(N)c3c(n2)NC(=O)C3(C)c2ccc(C(F)(F)F)cn2)cn2cc(C)nc12 (stereo not drawn) [Example 166B, 4-amino-2-(8-butyl-2-methylimidazo[1,2-a]pyrazin-6-yl)-5-methyl-5-(5-(trifluoromethyl)pyridin-2-yl)-5H-pyrrolo[2,3-d]pyrimidin-6(7H)-one] | – | 94 | 120 | – | – | A (Category A=SBP in SHRs<20 mmHg)
COc1cn2cc(-c3nc(N)c4c(n3)NC(=O)C4(C)c3ccc(F)cn3)nc(CCC(F)(F)C(F)(F)F)c2n1 (stereo not drawn) [Example 175B, 4-amino-5-(5-fluoropyridin-2-yl)-2-(2-methoxy-8-(3,3,4,4,4-pentafluorobutyl)imidazo [1,2-a]pyrazin-6-yl)-5-methyl-5H-pyrrolo[2,3-d]pyrimidin-6(7H)-one] | – | 88 | 501 | – | – | A (Category A=SBP in SHRs<20 mmHg)
CC1(c2ccc(F)cc2)C(=O)Nc2nc(-c3cn4cc(C5CC5)nc4c(CCC(F)(F)C(F)(F)F)n3)nc(N)c21 (stereo not drawn) [Example 157A, 4-amino-2-(2-cyclopropyl-8-(3,3,4,4,4-pentafluorobutyl)imidazo [1,2-a]pyrazin-6-yl)-5-(4-fluorophenyl)-5-methyl-5H-pyrrolo[2,3-d]pyrimidin-6(7H)-one] | – | 90 | 227 | B (Category B=SBP in SHRs 20-40 mmHg) | – | –
